Results taken from patent US20240308996A1, “PYRIDOPYRIDINES AND DERIVATIVES THEREOF AS SELECTIVE KINASE INHIBITORS” (University of Sharjah, priority 2023, published 2024).

Key:
Assay type in all cases: cell-based
ACHN = test: NCI-60 cell line panel: ACHN; conditions: Renal Cancer; for IC50: Homo sapiens; for TGI: total growth inhibition
Protocol: (§1) It was carried out at the NCI, Bethesda, MD, USA, utilizing their standard protocol.

SR = test: NCI-60 cell line panel: SR; conditions: Leukemia; for IC50: Homo sapiens; for TGI: total growth inhibition
Protocol: as §1

OVCAR-4 = test: NCI-60 cell line panel: OVCAR-4; conditions: Ovarian Cancer; for IC50: Homo sapiens
Protocol: as §1

786-0 = test: NCI-60 cell line panel: 786-0; conditions: Renal Cancer; for IC50: Homo sapiens; for TGI: total growth inhibition
Protocol: as §1

TK-10 = test: NCI-60 cell line panel: TK-10; conditions: Renal Cancer; for IC50: Homo sapiens; for TGI: total growth inhibition
Protocol: as §1

UO-31 = test: NCI-60 cell line panel: UO-31; parameters: TGI: unit not given here; conditions: Renal Cancer; for IC50: Homo sapiens; for TGI: total growth inhibition
Protocol: as §1

HCT-116 = test: NCI-60 cell line panel: HCT-116; conditions: Colon Cancer; for TGI: total growth inhibition; for IC50: Homo sapiens
Protocol: as §1

NCI-H460 = test: NCI-60 cell line panel: NCI-H460; conditions: Non-Small Cell Lung Cancer; for IC50: Homo sapiens; for TGI: total growth inhibition
Protocol: as §1

SK-OV-3 = test: NCI-60 cell line panel: SK-OV-3; conditions: Ovarian Cancer; for IC50: Homo sapiens; for TGI: total growth inhibition
Protocol: as §1

LOX IMVI = test: NCI-60 cell line panel: LOX IMVI; conditions: Melanoma; for IC50: Homo sapiens; for TGI: total growth inhibition
Protocol: as §1

A498 = test: NCI-60 cell line panel: A498; conditions: Renal Cancer; for IC50: Homo sapiens; for TGI: total growth inhibition
Protocol: as §1

MOLT-4 = test: NCI-60 cell line panel: MOLT-4; parameters: TGI: unit not given here; conditions: Leukemia; for IC50: Homo sapiens; for TGI: total growth inhibition
Protocol: as §1

MDA-MB-468 = test: NCI-60 cell line panel: MDA-MB-468; conditions: Breast Cancer; for TGI: total growth inhibition; for IC50: Homo sapiens
Protocol: as §1

EKVX = test: NCI-60 cell line panel: EKVX; conditions: Non-Small Cell Lung Cancer; for IC50: Homo sapiens
Protocol: as §1

HL-60(TB) = test: NCI-60 cell line panel: HL-60(TB); parameters: TGI: unit not given here; conditions: Leukemia; for IC50: Homo sapiens; for TGI: total growth inhibition
Protocol: as §1

SK-MEL-28 = test: NCI-60 cell line panel: SK-MEL-28; conditions: Melanoma; for IC50: Homo sapiens; for TGI: total growth inhibition
Protocol: as §1

MDA-MB-231/ATCC = test: NCI-60 cell line panel: MDA-MB-231/ATCC; conditions: Breast Cancer; for TGI: total growth inhibition; for IC50: Homo sapiens
Protocol: as §1

A549/ATCC = test: NCI-60 cell line panel: A549/ATCC; conditions: Non-Small Cell Lung Cancer; for IC50: Homo sapiens; for TGI: total growth inhibition
Protocol: as §1

COLO 205 = test: NCI-60 cell line panel: COLO 205; parameters: TGI: unit not given here; conditions: Colon Cancer; for TGI: total growth inhibition; for IC50: Homo sapiens
Protocol: as §1

UACC-62 = test: NCI-60 cell line panel: UACC-62; conditions: Melanoma; for IC50: Homo sapiens; for TGI: total growth inhibition
Protocol: as §1

[1] = tested on: hepatocellular carcinoma cell lines; test: Screening against HCC cell lines
Protocol: The target compounds were tested against hepatocellular carcinoma cell lines. Compounds 1j. 13a. 13b. 13c. […] The mean inhibition percentage values are illustrated in Table 9.
Two HCC cell lines (Hep3B and HepG2) were used for screening the antiproliferative activity of the synthesized compounds. The cell lines were obtained from the European Collection of Cell Cultures (ECACC, UK) and maintained in Dulbecco's Modified Eagle Medium (DMEM: Sigma-Aldrich) supplemented with 10% fetal bovine serum (FBS) and 1% penicillin/streptomycin and incubated at 37° C. in a 5% CO2 air atmosphere. In addition, WI-38 normal cell line was used to investigate the safety of these compounds.
MTT assay was conducted to calculate the IC50 of the compounds following the reported procedure . Briefly, the cells were seeded in 96-well tissue culture plates with a density of 5×10^4 cells/well and incubated overnight at 37° C. in a 5% CO2 air atmosphere. After that, cells were treated with the newly synthesized compounds or sorafenib as a positive control. DMSO was used as a negative control. After 48 h, the media were aspirated, and replaced with media containing 0.5 mg/mL of MTT tetrazolium dye (Sigma-Aldrich) for 2 h at 37° C. Finally, the media were removed and 200 μL of DMSO was added to solubilize the formazan crystals. Absorbance was then measured at 570 nm using Varioskan Flash multimode plate reader (Thermo Scientific, Massachusetts, USA).

CAKI-1 = test: NCI-60 cell line panel: CAKI-1; parameters: TGI: unit not given here; conditions: Renal Cancer; for IC50: Homo sapiens; for TGI: total growth inhibition
Protocol: as §1

SK-MEL-2 = test: NCI-60 cell line panel: SK-MEL-2; parameters: TGI: unit not given here; conditions: Melanoma; for IC50: Homo sapiens; for TGI: total growth inhibition
Protocol: as §1

BT-549 = test: NCI-60 cell line panel: BT-549; conditions: Breast Cancer; for TGI: total growth inhibition; for IC50: Homo sapiens
Protocol: as §1

OVCAR-8 = test: NCI-60 cell line panel: OVCAR-8; conditions: Ovarian Cancer; for IC50: Homo sapiens; for TGI: total growth inhibition, in µM (unit assumed)
Protocol: as §1

NCI-H23 = test: NCI-60 cell line panel: NCI-H23; conditions: Non-Small Cell Lung Cancer; for IC50: Homo sapiens; for TGI: total growth inhibition
Protocol: as §1

SNB-19 = test: NCI-60 cell line panel: SNB-19; conditions: CNS Cancer; for TGI: total growth inhibition; for IC50: Homo sapiens
Protocol: as §1

PC-3 = test: NCI-60 cell line panel: PC-3; conditions: Prostate Cancer; for IC50: Homo sapiens; for TGI: total growth inhibition
Protocol: as §1

KM12 = test: NCI-60 cell line panel: KM12; conditions: Colon Cancer; for TGI: total growth inhibition; for IC50: Homo sapiens
Protocol: as §1

T-47D = test: NCI-60 cell line panel: T-47D; conditions: Breast Cancer; for TGI: total growth inhibition; for IC50: Homo sapiens, T47D
Protocol: as §1

NCI-H322M = test: NCI-60 cell line panel: NCI-H322M; conditions: Non-Small Cell Lung Cancer; for IC50: Homo sapiens; for TGI: total growth inhibition
Protocol: as §1

SK-MEL-5 = test: NCI-60 cell line panel: SK-MEL-5; conditions: Melanoma; for IC50: Homo sapiens; for TGI: total growth inhibition
Protocol: as §1

[2] = total growth inhibition, in µM (unit assumed)

Compound: CCN1CCN(c2ccc(NC(=O)Nc3ccc(-c4cc(C(=O)NC)c5ncccc5n4)cc3)cc2C(F)(F)F)CC1 [Compound 13c, 2-(4-(3-(4-(4-Ethylpiperazin-1-yl)-3-(trifluoromethyl)phenyl)ureido)phenyl)-N-methyl-1,5-naphthyridine-4-carboxamide]
- IC50 (ACHN): 2.39 µM
- TGI (ACHN): 4.73 µM
- IC50 (SR): 0.67 µM
- TGI (SR): > 18 µM
- IC50 (OVCAR-4): 2.63 µM
- IC50 (786-0): 0.3 µM
- TGI (786-0): 0.58 µM
- IC50 (TK-10): 3.86 µM
- TGI (TK-10): 6.63 µM
- IC50 (UO-31): 2.71 µM
- TGI (UO-31): 5.14
- TGI (HCT-116): 4.83 µM
- IC50 (HCT-116): 1.12 µM
- IC50 (NCI-H460): 0.66 µM
- TGI (NCI-H460): 2.93 µM
- IC50 (SK-OV-3): 3.48 µM
- TGI (SK-OV-3): 7.5 µM
- IC50 (LOX IMVI): 0.67 µM
- TGI (LOX IMVI): 2.66 µM
- IC50 (A498): 2.74 µM
- TGI (A498): 5.31 µM
- IC50 (MOLT-4): 0.7 µM
- TGI (MOLT-4): >18.0
- TGI (MDA-MB-468): 5.03 µM
- IC50 (MDA-MB-468): 2.48 µM
- IC50 (EKVX): 2.94 µM
- IC50 (HL-60(TB)): 3.42 µM
- TGI (HL-60(TB)): >18.0
- IC50 (SK-MEL-28): 0.32 µM
- TGI (SK-MEL-28): 0.58 µM
- TGI (MDA-MB-231/ATCC): 5.25 µM
- IC50 (MDA-MB-231/ATCC): 2.78 µM
- IC50 (A549/ATCC): 0.47 µM
- TGI (A549/ATCC): 1.3 µM
- TGI (COLO 205): 14.20
- IC50 (COLO 205): 4.15 µM
- IC50 (UACC-62): 3.06 µM
- TGI (UACC-62): 5.66 µM
- inhibition activity against hepatocellular carcinoma cell lines compared with sorafenib [1]: higher inhibition activity than sorafenib
- IC50 (CAKI-1): 3.01 µM
- TGI (CAKI-1): 5.60
- IC50 (SK-MEL-2): 9.87 µM
- TGI (SK-MEL-2): >18.0
- TGI (BT-549): 5.67 µM
- IC50 (BT-549): 2.78 µM
- IC50 (OVCAR-8): 3.85 µM
- TGI (OVCAR-8): 10.50
- IC50 (NCI-H23): 2.68 µM
- TGI (NCI-H23): 5.68 µM
- TGI (SNB-19): 5.48 µM
- IC50 (SNB-19): 2.97 µM
- IC50 (PC-3): 2.88 µM
- TGI (PC-3): 6.03 µM
- TGI (KM12): 6.65 µM
- IC50 (KM12): 3.25 µM
- TGI (T-47D): > 18 µM
- IC50 (T-47D): 3.72 µM
- IC50 (NCI-H322M): 2.8 µM
- TGI (NCI-H322M): 5.2 µM
- IC50 (SK-MEL-5): 2.05 µM
- TGI (SK-MEL-5): 4.26 µM

Compound: CC(C)NC(=O)c1cc(-c2ccc(NC(=O)Nc3ccc(N4CCN(C)CC4)c(C(F)(F)F)c3)cc2)nc2cccnc12 [Compound 13e, N-Isopropyl-2-(4-(3-(4-(4-methylpiperazin-1-yl)-3-(trifluoromethyl)phenyl)ureido)phenyl)-1,5-naphthyridine-4-carboxamide]
- IC50 (ACHN): 0.64 µM
- TGI (ACHN): 1.18 µM
- IC50 (SR): 1 µM
- TGI (SR): 3.19 µM
- IC50 (OVCAR-4): 0.74 µM
- TGI (OVCAR-4; [2]): 1.62
- IC50 (786-0): 0.53 µM
- TGI (786-0): 1.1 µM
- IC50 (TK-10): 0.71 µM
- TGI (TK-10): 1.31 µM
- IC50 (UO-31): 0.59 µM
- TGI (UO-31): 1.11
- TGI (HCT-116): 1.35 µM
- IC50 (HCT-116): 0.69 µM
- IC50 (NCI-H460): 0.7 µM
- TGI (NCI-H460): 1.31 µM
- IC50 (SK-OV-3): 2.93 µM
- TGI (SK-OV-3): 8.23 µM
- IC50 (LOX IMVI): 0.62 µM
- TGI (LOX IMVI): 1.15 µM
- IC50 (A498): 4.71 µM
- TGI (A498): 9.61 µM
- IC50 (MOLT-4): 0.76 µM
- TGI (MOLT-4): 2.89
- TGI (MDA-MB-468): 1.36 µM
- IC50 (MDA-MB-468): 0.71 µM
- IC50 (EKVX): 0.77 µM
- TGI (EKVX; [2]): 1.49
- IC50 (HL-60(TB)): 0.77 µM
- TGI (HL-60(TB)): 2.12
- IC50 (SK-MEL-28): 0.64 µM
- TGI (SK-MEL-28): 1.17 µM
- TGI (MDA-MB-231/ATCC): 1.26 µM
- IC50 (MDA-MB-231/ATCC): 0.67 µM
- IC50 (A549/ATCC): 0.73 µM
- TGI (A549/ATCC): 1.64 µM
- TGI (COLO 205): 1.86
- IC50 (COLO 205): 0.85 µM
- IC50 (UACC-62): 0.66 µM
- TGI (UACC-62): 1.24 µM
- inhibition activity against hepatocellular carcinoma cell lines compared with sorafenib [1]: higher inhibition activity than sorafenib
- IC50 (CAKI-1): 0.65 µM
- TGI (CAKI-1): 1.22
- IC50 (SK-MEL-2): 1 µM
- TGI (SK-MEL-2): 2.60
- TGI (BT-549): 7.41 µM
- IC50 (BT-549): 2.1 µM
- IC50 (OVCAR-8): 0.84 µM
- TGI (OVCAR-8): 1.95
- IC50 (NCI-H23): 0.73 µM
- TGI (NCI-H23): 1.46 µM
- TGI (SNB-19): 1.56 µM
- IC50 (SNB-19): 0.73 µM
- IC50 (PC-3): 0.72 µM
- TGI (PC-3): 1.52 µM
- TGI (KM12): 1.66 µM
- IC50 (KM12): 0.8 µM
- TGI (T-47D): 24.7 µM
- IC50 (T-47D): 7.62 µM
- IC50 (NCI-H322M): 0.71 µM
- TGI (NCI-H322M): 1.55 µM
- IC50 (SK-MEL-5): 0.67 µM
- TGI (SK-MEL-5): 1.21 µM
